Experimental data reported in ChEMBL document CHEMBL5696439 (Cancer Res, 2010).
≈ marks a conversion by molar mass, not a printed value. Each block holds one molecule with its values, some of them ahead of it. Calls of active or inactive are those of the source. The calls are words filed in the database; no cut-off is given here.

How the values were obtained:
MDA-MB-361 [1] = assay: Induction of apoptosis in HER2 hyperactive human MDA-MB-361 cells assessed as massive cell death at 0.001 to 100 micromol/L incubated for 48 hrs by FACS analysis; type: functional, cell-based; conditions: dose 0.001-100 µmol/L
[2] = biological target: T1, Serine/threonine-protein kinase mTOR (Homo sapiens, UniProt P42345); assay: Inhibition of mTOR in human MDA-MB-361 cells assessed as 4EBP1 phosphorylation at S65 level at 1 micromol/L incubated 16 hrs by westernblot analysis; type: cell-based; conditions: dose 1.0 µmol/L
U-87 MG [3] = assay: Antiproliferative activity against human U-87MG cells assessed as suppression in cell growth at 10 micromol/L incubated for 3 days by MTS assay relative to control; type: functional, U-87MG ATCC; conditions: dose 10 µmol/L; time 3 day; at 10 µM
MDA-MB-361 [4] = assay: Antiproliferative activity against human MDA-MB-361 cells assessed as suppression in cell growth at 10 micromol/L incubated for 3 days by MTS assay relative to control; type: functional; conditions: dose 10 µmol/L; time 3 day; at 10 µM
MDA-MB-361 [5] = assay: Induction of apoptosis in PI3K/mTOR hyperactive human MDA-MB-361 cells assessed as cell death at 0.001 to 100 micromol/L incubated for 24 hrs by FACS analysis; type: functional, cell-based; conditions: dose 0.001-100 µmol/L
MDA-MB-361 [6] = assay: Antitumor activity against human MDA-MB-361 cells assessed as reduction in oxygen consumption rate at 1 micromol/L incubated for 1 hrs relative to control; type: functional; set-up: scale not given: the % may be the effect or the level left; conditions: dose 1 µmol/L, at 1 µM
HEK293 = assay: Antiproliferative activity against HEK293 cells assessed as reduction in polysomes at 0.5 micromol/L incubated for 16 hrs; type: functional, Homo sapiens; conditions: dose 0.5 µmol/L
[7] = biological target: T1, Serine/threonine-protein kinase mTOR; assay: Inhibition of mTOR in human MDA-MB-361 cells assessed as 4EBP1 phosphorylation at T37/46 level at 1 micromol/L incubated 16 hrs by westernblot analysis; type: cell-based; conditions: dose 1.0 µmol/L
MDA-MB-361 [8] = assay: Induction of apoptosis in PI3K/mTOR hyperactive human MDA-MB-361 cells assessed as massive cell death at 0.001 to 100 micromol/L incubated for 48 hrs by FACS analysis; type: functional, cell-based; conditions: dose 0.001-100 µmol/L
U-87 MG [9] = assay: Antitumor activity against human U-87MG cells assessed as lactate production incubated for 24 hrs; type: functional, cell-based; conditions: U-87MG ATCC, dose 0.01-10 µmol/L
MDA-MB-361 [10] = assay: Induction of apoptosis in human MDA-MB-361 cells assessed as PARP cleavage at 0.5 to 5 micromol/L incubated for 48 hrs by Western blot analysis; type: functional, cell-based; conditions: dose 0.5-5 µmol/L
LNCaP [11] = assay: Antiproliferative activity against human LNCaP cells assessed as suppression in cell growth at 10 micromol/L incubated for 3 days by MTS assay relative to control; type: functional; conditions: dose 10 µmol/L; time 3 day; at 10 µM
U-87 MG [12] = assay: Antitumor activity against human U-87MG cells assessed as reduction in lactate production at 1 micromol/L incubated for 24 hrs relative to control; type: functional, U-87MG ATCC; set-up: scale not given: the % may be the effect or the level left; conditions: dose 1 µmol/L, at 1 µM
MDA-MB-361 [13] = assay: Inhibition of protein synthesis in human MDA-MB-361 cells at 3 micromol/L incubated for 3 hrs by [3H] methionine incorporation based scintillation counter analysis; type: functional, cell-based; conditions: dose 3.0 µmol/L
A498 [14] = assay: Antiproliferative activity against human A498 cells assessed as reduction in cell size at 1 micromol/L incubated for 48 hrs by Flow cytometry analysis relative to control; type: functional; set-up: scale not given: the % may be the effect or the level left; conditions: dose 1 µmol/L, at 1 µM
MDA-MB-361 [15] = assay: Induction of apoptosis in HER2 hyperactive human MDA-MB-361 cells assessed as cell death at 0.001 to 100 micromol/L incubated for 24 hrs by FACS analysis; type: functional, cell-based; conditions: dose 0.001-100 µmol/L
A498 [16] = assay: Antiproliferative activity against human A498 cells assessed as suppression in cell growth at 10 micromol/L incubated for 3 days by MTS assay relative to control; type: functional; conditions: dose 10 µmol/L; time 3 day; at 10 µM
A549 [17] = assay: Antitumor activity against VHL null-human A549 cells xenografted in female nude mouse model assessed as inhibition in tumor growth at 25 mg/kg, iv administered 5 times a week; type: functional, organism-based
A549 [18] = assay: Antitumor activity against human A549 cells xenografted in female nude mouse model assessed as substantial regression in large tumor growth at 200 mg/kg, iv administered once a week; type: functional, organism-based
[19] = biological target: T1, Serine/threonine-protein kinase mTOR; assay: Inhibition of mTOR in human MDA-MB-361 cells assessed as 4EBP1 phosphorylation at T70 level at 1 micromol/L incubated 16 hrs by westernblot analysis; type: cell-based; conditions: dose 1.0 µmol/L
A549 [20] = assay: Antiproliferative activity against human A549 cells assessed as suppression in cell growth at 10 micromol/L incubated for 3 days by MTS assay relative to control; type: functional; conditions: dose 10 µmol/L; time 3 day; at 10 µM
MDA-MB-361 [21] = assay: Antiproliferative activity against human MDA-MB-361 cells assessed as cell growth inhibition incubated for 1 days by MTS assay; type: functional, cell-based; conditions: MDA-MB-361, 24 h
MDA-MB-361 [22] = assay: Antiproliferative activity against human MDA-MB-361 cells assessed as cell growth inhibition incubated for 3 days by MTS assay; type: functional, cell-based; conditions: MDA-MB-361, 72 h
A498 [23] = assay: cells; conditions: Homo sapiens, A498, 72 h
Description: Antiproliferative activity against human A498 cells assessed as cell growth inhibition incubated for 3 days by MTS assay

A498 [24] = assay: cells; conditions: Homo sapiens, A498, 48 h
Description: Antiproliferative activity against human A498 cells assessed as cell growth inhibition incubated for 2 days by MTS assay

A498 [25] = assay: cells; conditions: Homo sapiens, A498, 24 h
Description: Antiproliferative activity against human A498 cells assessed as cell growth inhibition incubated for 1 days by MTS assay

MDA-MB-361 [26] = assay: Antiproliferative activity against human MDA-MB-361 cells assessed as cell growth inhibition incubated for 2 days by MTS assay; type: functional, cell-based; conditions: MDA-MB-361, 48 h
LNCaP [27] = assay: Induction of apoptosis in human LNCaP cells assessed as increase in caspase-3/caspase-7 activity at 1 to 6 uM incubated for 24 to 48 hrs; type: functional, cell-based; conditions: dose 1-6 µM, time 24-48 hrs
MDA-MB-361 [28] = assay: Induction of apoptosis in human MDA-MB-361 cells assessed as increase in G1 phase at 5 micromol/L incubated for 24 hrs by FACS analysis relative to control; type: functional; conditions: dose 5 µmol/L, at 5 µM
MDA-MB-361 [29] = assay: Induction of apoptosis in human MDA-MB-361 cells assessed as little increase in G1 phase at 5 micromol/L incubated for 12 hrs by FACS analysis relative to control; type: functional, cell-based; conditions: dose 5.0 µmol/L
MDA-MB-361 [30] = assay: Induction of apoptosis in human MDA-MB-361 cells assessed as increase in caspase-3/caspase-7 activity at 1 to 6 uM incubated for 24 to 48 hrs; type: functional, cell-based; conditions: dose 1-6 µM, time 24-48 hrs

inhibition [2]: Active
inhibition [7]: inactive
inhibition [19]: Active
SMILES: CO[C@H]1C[C@@H]2CC[C@@H](C)[C@@](O)(O2)C(=O)C(=O)N2CCCC[C@H]2C(=O)O[C@H]([C@H](C)C[C@@H]2CC[C@@H](OC(=O)C(C)(CO)CO)[C@H](OC)C2)CC(=O)[C@H](C)/C=C(\C)[C@@H](O)[C@@H](OC)C(=O)[C@H](C)C[C@H](C)/C=C/C=C/C=C/1C [TEMSIROLIMUS]
Activity (MDA-MB-361 [1]): inactive
Activity (U-87 MG [3]): <=50%
Activity (MDA-MB-361 [4]): <=50%
Activity (MDA-MB-361 [5]): inactive
Activity (MDA-MB-361 [6]): 82%
Activity (HEK293): 1.02
Activity (MDA-MB-361 [8]): inactive
Activity (U-87 MG [9]): Dose-Dependent Effect
Activity (MDA-MB-361 [10]): inactive
Activity (LNCaP [11]): <=50%
Activity (U-87 MG [12]): 80%
inhibition (MDA-MB-361 [13]): inactive
Activity (A498 [14]): 97%
Activity (MDA-MB-361 [15]): inactive
Activity (A498 [16]): <=50%
inhibition (A549 [17]): Active
Activity (A549 [18]): inactive
Activity (A549 [20]): <=50%

IC50 (MDA-MB-361 [21]): > 0.15 µg/mL
IC50 (MDA-MB-361 [22]): 0.004 µg/mL (≈ 0.00468 µM)
IC50 (A498 [23]): 0.03 µg/mL (≈ 0.0351 µM)
IC50 (A498 [24]): > 0.15 µg/mL
IC50 (A498 [25]): > 0.15 µg/mL
IC50 (MDA-MB-361 [26]): > 0.15 µg/mL
SMILES: CC(=O)O[C@H]1C(=O)[C@@]2(C)[C@H]([C@H](OC(=O)c3ccccc3)[C@]3(O)C[C@H](OC(=O)[C@H](O)[C@@H](NC(=O)c4ccccc4)c4ccccc4)C(C)=C1C3(C)C)[C@]1(OC(C)=O)CO[C@@H]1C[C@@H]2O [PACLITAXEL]

SMILES: Oc1cccc(-c2nc(N3CCOCC3)c3oc4ncccc4c3n2)c1 [PI-103]
Activity (LNCaP [27]): Active
Activity (MDA-MB-361 [28]): 27%
Activity (MDA-MB-361 [29]): Active
Activity (MDA-MB-361 [30]): Active
